According to patent US9433609B2, “Benzimidazole-imidazole derivatives” (Janssen Sciences Ireland UC, priority 2009, dated 2016):

Key:
[1] = Counterscreen MT4-LTR-Luc; format: cell-based; conditions: human
Text: Counterscreen cell lines included a Huh-7 hepatoma cell line containing a human cytomegalovirus major immediate-early promoter-Luc construct (Huh7-CMV-Luc) and an MT4 T-cell line containing a long terminal repeat-Luc reporter (MT4-LTR-Luc).

[2] = system: HCV genotype 1b replicon with NS5A R30H; test: Transient HCV 1b replicon assay, NS5A mutant R30H; format: cell-based; conditions: Hepatitis C virus, read-out: EC50 R30H
Text: In a transient set-up, a Huh-7 lunet hepatoma cell line was transiently transfected with an autonomously replicating RNA encoding a bi-cistronic expression construct. This construct comprises a firefly luciferase reporter gene preceding the NS3-NS5B subgenomic region of HCV (genotype 1a H77 or 1b Con1). Translation of the HCV subgenomic region is mediated by an internal ribosome entry site of encephalomyocarditis virus. The construct is furthermore flanked by 5′ and 3′ untranslated regions of HCV (genotype 1a H77 or 1b Con 1, respectively), which allow for replication of the RNA.
In addition to the wild-type constructs, site-directed mutations were introduced into the transient HCV genotype 1b replicon in the gene encoding for the non-structural protein 5A (NS5A). More precisely, amino acid residues 28, 30, 31 and 93 in NS5A were independently altered.
Cells were plated in 384 well plates in the presence of test and control compounds, which were added in various concentrations. Following an incubation of two days, replication of the HCV subgenomic replicon RNA was measured by assaying luciferase activity (using standard luciferase assay substrates and reagents and a Perkin Elmer ViewLux™ ultraHTS microplate imager). […] The inhibitory activity of the compound was monitored, enabling a dose-response curve for each test compound. […]

In the case of `COC(=O)N[C@H](C(=O)N1CCC[C@H]1c1ncc(-c2ccc(-c3ccc4nc([C@@H]5CCCN5C(=O)[C@@H](NC(=O)OC)C(C)C)[nH]c4c3)cc2)[nH]1)C(C)C` [Compound 1], the CC50 [1] is reported as over 984 nM and the EC50 [2] is reported as 0.6 nM.
